Source: patent publication US9296734B2 (AMGEN INC., priority 2013, dated 2016)
pIC50: −log10 of the molar value. Read-outs that look alike come from different tables or passages of the source.

Target: Cathepsin D (Cat D) (Homo sapiens (Human), UniProt P07339)
Assay: In vitro enzymatic Cathepsin D (Cat D) FRET assay
Format: biochemical
Details: read-out: CatD IC50
Protocol: In Vitro Enzymatic Cathepsin D (Cat D) FRET (Fluorescence Resonance Energy Transfer) Assay
Recombinant Cat D was expressed in CHO cells. The assay buffer for CathepsinD is 0.05 M citrate pH 3.5, 10% DMSO final, 5 mM CHAPS. […] The assays are effectively started by the addition of different FRET substrates (20 nM for Cat D) and the combination is incubated for one hour. The FRET assay is terminated with by addition of Tris buffer, which raises the pH to neutrality, and the fluorescence is determined. The FRET substrate is a peptide with commercially available fluorophore and quencher, on opposite sides of the BACE cleavage site. […] Proteolytic cleavage of the FRET substrate releases quenching of fluorescence (Cat D excitation 500 nm and emission 580 nm).
In addition, the cathepsin D and cathepsin E assays are described in PCT publication WO2011069934.

[1] = average IC50, cathepsin D enzyme assay

Chain of Cathepsin D (Cat D) (P07339 65-412, species assumed): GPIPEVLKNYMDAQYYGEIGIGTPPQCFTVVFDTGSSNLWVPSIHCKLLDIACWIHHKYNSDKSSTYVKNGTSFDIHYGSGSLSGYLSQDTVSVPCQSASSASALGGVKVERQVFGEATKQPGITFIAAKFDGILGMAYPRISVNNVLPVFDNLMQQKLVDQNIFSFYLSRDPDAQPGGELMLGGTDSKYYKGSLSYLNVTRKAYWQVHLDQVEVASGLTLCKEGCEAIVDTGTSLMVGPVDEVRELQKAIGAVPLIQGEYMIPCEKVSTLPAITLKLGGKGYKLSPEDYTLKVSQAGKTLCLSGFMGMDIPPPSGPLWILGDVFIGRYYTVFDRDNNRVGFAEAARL

Row | pIC50 (average IC50) | pIC50 [1] | Structure (SMILES) | further results
1 | < 3.40 |  | COc1cnc(C(=O)Nc2ccc(F)c([C@]3(CF)C[C@H](C(F)(F)F)OC(N)=N3)c2)cn1 (racemic) [Example 25, N-(3-((4S,6R)-2-amino-4-(fluoromethyl)-6-(trifluoromethyl)-5,6-dihydro-4H-1,3-oxazin-4-yl)-4-fluorophenyl)-5-methoxypyrazine-2-carboxamide] | 
2 | 3.69 |  | Cc1cc(Cl)cnc1C(=O)Nc1ccc(F)c([C@]2(C)C[C@@H](C(F)(F)F)OC(N)=N2)c1 (racemic) [Example 31, N-(3-((4SR,6SR)-2-amino-4-methyl-6-(trifluoromethyl)-5,6-dihydro-4H-1,3-oxazin-4-yl)-4-fluorophenyl)-5-chloro-3-methyl-2-pyridinecarboxamide] | 
3 | < 4.36 |  | N#Cc1cnc2c(Nc3ccc(F)c([C@]4(CF)C[C@@H](C(F)(F)F)OC(N)=N4)c3)ncc(F)c2c1 [Example 10, 8-((3-((4S,6S)-2-amino-4-(fluoromethyl)-6-(trifluoromethyl)-5,6-dihydro-4H-1,3-oxazin-4-yl)-4-fluorophenyl)amino)-5-fluoro-1,7-naphthyridine-3-carbonitrile] | 
4 | 4.26 |  | NC1=N[C@](CF)(c2cc(Nc3ncnc4cc(Cl)cnc34)ccc2F)C[C@@H](C(F)(F)F)O1 [Example 11, (4S,6S)-4-(5-((7-chloropyrido[3,2-d]pyrimidin-4-yl)amino)-2-fluorophenyl)-4-(fluoromethyl)-6-(trifluoromethyl)-5,6-dihydro-4H-1,3-oxazin-2-amine] | 
5 | < 3.40 |  | COc1cnc2c(Nc3ccc(F)c([C@]4(CF)C[C@@H](C(F)(F)F)OC(N)=N4)c3)nccc2c1 [Example 12, (4S,6S)-4-(2-fluoro-5-((3-methoxy-1,7-naphthyridin-8-yl)amino)phenyl)-4-(fluoromethyl)-6-(trifluoromethyl)-5,6-dihydro-4H-1,3-oxazin-2-amine] | 
6 | < 3.40 |  | COc1cnc2c(Nc3ccc(F)c([C@]4(CF)C[C@@H](C(F)(F)F)OC(N)=N4)c3)ncnc2c1 [Example 13, (4S,6S)-4-(2-fluoro-5-((7-methoxypyrido[3,2-d]pyrimidin-4-yl)amino)phenyl)-4-(fluoromethyl)-6-(trifluoromethyl)-5,6-dihydro-4H-1,3-oxazin-2-amine] | 
7 |  | 2.97 | COc1cccnc1Nc1ccc(F)c([C@]2(CF)C[C@@H](C(F)(F)F)OC(N)=N2)c1 [Example 15, (4S,6S)-4-(2-fluoro-5-((3-methoxypyridin-2-yl)-amino)phenyl)-4-(fluoromethyl)-6-(trifluoromethyl)-5,6-dihydro-4H-1,3-oxazin-2-amine] | 
8 |  | < 3.88 | NC1=N[C@](CF)(c2cc(Nc3ncc(F)c4cc(Cl)cnc34)ccc2F)C[C@@H](C(F)(F)F)O1 [Example 19, (4S,6S)-4-(5-((3-chloro-5-fluoro-1,7-naphthyridin-8-yl)amino)-2-fluorophenyl)-4-(fluoromethyl)-6-(trifluoromethyl)-5,6-dihydro-4H-1,3-oxazin-2-amine] | 
9 |  | < 3.40 | NC1=N[C@](CF)(c2cc(Nc3ncnc4sc(C(F)F)nc34)ccc2F)C[C@@H](C(F)(F)F)O1 [Example 21, (4S,6S)-4-(5-((2-(difluoromethyl)thiazolo[5,4-d]pyrimidin-7-yl)amino)-2-fluorophenyl)-4-(fluoromethyl)-6-(trifluoromethyl)-5,6-dihydro-4H-1,3-oxazin-2-amine] | 
10 | < 3.40 |  | COc1cnc(C(=O)Nc2ccc(F)c([C@]3(CF)C[C@@H](C(F)(F)F)OC(N)=N3)c2)c(C)n1 [Example 33, N-(3-((4S,6S)-2-amino-4-(fluoromethyl)-6-(trifluoromethyl)-5,6-dihydro-4H-1,3-oxazin-4-yl)-4-fluorophenyl)-5-methoxy-3-methylpyrazine-2-carboxamide] | 
11 |  | < 3.40 | C#CCOc1cnc(C(=O)Nc2ccc(F)c([C@]3(CF)C[C@@H](C(F)(F)F)OC(N)=N3)c2)cn1 [Example 35, N-(3-((4S,6S)-2-amino-4-(fluoromethyl)-6-(trifluoromethyl)-5,6-dihydro-4H-1,3-oxazin-4-yl)-4-fluorophenyl)-5-(prop-2-yn-1-yloxy)pyrazine-2-carboxamide] | 
12 |  | 2.62 | NC1=N[C@](CF)(c2cc(NC(=O)c3nn(C(F)F)cc3Cl)ccc2F)C[C@@H](C(F)(F)F)O1 [Example 36, N-(3-((4S,6S)-2-amino-4-(fluoromethyl)-6-(trifluoromethyl)-5,6-dihydro-4H-1,3-oxazin-4-yl)-4-fluorophenyl)-4-chloro-1-(difluoromethyl)-1H-pyrazole-3-carboxamide] | 
13 |  | < 3.40 | Cc1nc(OCC(F)(F)F)cnc1C(=O)Nc1ccc(F)c([C@]2(CF)C[C@@H](C(F)(F)F)OC(N)=N2)c1 [Example 38, N-(3-((4S,6S)-2-amino-4-(fluoromethyl)-6-(trifluoromethyl)-5,6-dihydro-4H-1,3-oxazin-4-yl)-4-fluorophenyl)-3-methyl-5-(2,2,2-trifluoroethoxy)pyrazine-2-carboxamide] | 
14 |  | < 3.40 | NC1=N[C@](CF)(c2cc(NC(=O)c3ncc(C(F)(F)F)cc3Cl)ccc2F)C[C@@H](C(F)(F)F)O1 [Example 44, N-(3-((4S,6S)-2-amino-4-(fluoromethyl)-6-(trifluoromethyl)-5,6-dihydro-4H-1,3-oxazin-4-yl)-4-fluorophenyl)-3-chloro-5-(trifluoromethyl)picolinamide] | 
15 |  |  | C#CCOc1cnc(C(=O)Nc2ccc(F)c([C@]3(C)C[C@@H](C(F)(F)F)OC(N)=N3)c2)cn1 [Example 45, N-(3-((4S,6S)-2-amino-4-methyl-6-(trifluoromethyl)-5,6-dihydro-4H-1,3-oxazin-4-yl)-4-fluorophenyl)-5-(prop-2-yn-1-yloxy)pyrazine-2-carboxamide] | pIC50 (average): 2.59
16 |  | < 3.40 | NC1=N[C@](CF)(c2cc(NC(=O)c3cnc(OCc4ncco4)cn3)ccc2F)C[C@@H](C(F)(F)F)O1 [Example 46, N-(3-((4S,6S)-2-amino-4-(fluoromethyl)-6-(trifluoromethyl)-5,6-dihydro-4H-1,3-oxazin-4-yl)-4-fluorophenyl)-5-(oxazol-2-ylmethoxy)pyrazine-2-carboxamide] | 
17 | < 3.40 |  | COc1ccc(C(=O)Nc2ccc(F)c([C@]3(CF)C[C@@H](C(F)(F)F)OC(N)=N3)c2)nc1 [Example 49, N-(3-((4S,6S)-2-amino-4-(fluoromethyl)-6-(trifluoromethyl)-5,6-dihydro-4H-1,3-oxazin-4-yl)-4-fluorophenyl)-5-methoxypicolinamide] | 
18 | < 3.40 |  | NC1=N[C@](CF)(c2cc(NC(=O)c3ncc(Br)cc3Cl)ccc2F)C[C@@H](C(F)(F)F)O1 [Example 56, N-(3-((4S,6S)-2-amino-4-(fluoromethyl)-6-(trifluoromethyl)-5,6-dihydro-4H-1,3-oxazin-4-yl)-4-fluorophenyl)-5-bromo-3-chloro-2-pyridinecarboxamide] | 
19 | 2.62 |  | NC1=N[C@](CF)(c2cc(NC(=O)c3ncc(Cl)cc3Cl)ccc2F)C[C@@H](C(F)(F)F)O1 [Example 58, N-(3-((4S,6S)-2-amino-4-(fluoromethyl)-6-(trifluoromethyl)-5,6-dihydro-4H-1,3-oxazin-4-yl)-4-fluorophenyl)-3,5-dichloropicolinamide] | 
20 | < 3.40 |  | N#Cc1ccc(C(=O)Nc2ccc(F)c([C@]3(CF)C[C@@H](C(F)(F)F)OC(N)=N3)c2)nc1 [Example 59, N-(3-((4S,6S)-2-amino-4-(fluoromethyl)-6-(trifluoromethyl)-5,6-dihydro-4H-1,3-oxazin-4-yl)-4-fluorophenyl)-5-cyanopicolinamide] | 
